Source: patent EP0561516A1, “Process for stabilizing chlorinated polyethylene against degradation” (THE DOW CHEMICAL COMPANY, priority 1992, dated 1993)

Assays:
Assay type in all cases: physicochemical
[1] = Thermal degradation (weight loss) by TGA at 180 °C in nitrogen purge; conditions: TGA 180 °C, 60 minutes, 0.3% antioxidant added to CPE slurry heated to 80 °C for 90 minutes
Description: The thermal degradation (weight loss) of the following samples is measured by TGA at 180 °C (in a nitrogen purge during 60 minutes).

[2] = Total organic carbon (TOC) of the slurry, test of antioxidant deposition on CPE; conditions: 60 minutes after addition of 0.5% antioxidant to the CPE slurry; 11.8 ppm before addition
Description: In order to test that the antioxidant has actually deposited on the CPE, rather than on the reactor walls, the total organic carbon (TOC) of the slurry is measured, and a glass slide placed in the reactor during the test is investigated for deposition of antioxidant.

[3] = Extension at break after roll milling, dry blending versus liquid-liquid addition of antioxidant; conditions: with calcium stearate, epoxidized soja bean oil, titanium dioxide
Description: In order to illustrate the advantages of liquid-liquid blending over dry blending, a sample of CPE containing 36% chlorine, having a density of 1.18 g/cm³, a weight average molecular weight of 2x10⁵ and a cristallinity of 0.5% is mixed in a food processor with 1% calcium stearate, 1% epoxidized soja bean oil and 0.5% titanium dioxide, based on the weight of the CPE. The mixture is formed into a sheet of 3 mm thickness on a roll mill at 190 °C, and its tensile properties are measured. The extension at break is a measure of the molecular weight of a polymer. The material breaks at 596% extension.
Another sample of the same material is milled for 15 minutes at 190 °C before a sheet of 3 mm thickness is formed.
The antioxidant IRGANOX 1076 (trademark) is added to the mixture as described above at an amount of 0.25% by the weight of the CPE using the food mixer. The resulting mixture is milled for 15 minutes. The extension at break of a sheet of 3 mm thickness, prepared as indicated above, is 740%, showing that the degree of chain scission is reduced by the addition of the antioxidant. (comparative run, but not State of the Art.)
To an aqueous slurry containing 16 % of the CPE, based on the total weight of the slurry, 0.25% IRGANOX 1076 (trademark), by the weight of CPE is added in the manner described in Example 1. The mixture is dried as described in Example 1. […]

Row | Compound | thermal degradation (weight loss) [1] [ppm/min.] | total organic carbon (TOC) of the slurry [2] [ppm] | extension at break ([3]; 0.25% antioxidant added to aqueous slurry with 16% CPE (method of the invention), 15 minutes milling) [%] | extension at break ([3]; 0.25% antioxidant dry-blended in food mixer (comparative run), milled 15 minutes at 190 °C, sheet of 3 mm) [%]
1 | Cc1cc(CCC(=O)OCCOCCOCCOC(=O)CCc2cc(C)c(O)c(C(C)(C)C)c2)cc(C(C)(C)C)c1O [IRGANOX 245, triethylene glycol bis [3-tert-butyl-4-hydroxy-5-methylphenyl]propionate] | 75 |  |  | 
2 | CCCCCCCCCCCCCCCCCCOC(=O)CCc1cc(C(C)(C)C)c(O)c(C(C)(C)C)c1 [IRGANOX 1076, Octadecyl 3,5-di-tert-butyl-4-hydroxyhydrocinnamate] |  | 10.0 | 704 | 740
